Test results published in patent publication US20090028834A1 (priority 2007, published 2009).

Experiments:
Assay type in all cases: cell-based
[1] = test system: Colony Forming Unit—Megakaryocyte (CFU-Mk); assay: Colony forming unit (CFU) assay, human bone marrow cells; conditions: for effect of receptor antagonist on substance P-enhanced platelet colony formation: antagonist in the presence of substance P
From the text: (§1) This study examined the formation of three different progenitor cell populations, erythrocytes, platelets and granulocytes/macrophages.
(§2) Bone marrow aspirates were obtained from three healthy donors between 18 and 35 years of age following appropriate guidelines and protocols. Bone marrow mononuclear cells were isolated using a Ficoll-Hypaque density gradient, separating red blood cells from the others. Cells from each donor were processed independently and used for setting up individual experiments to assess the effects, if any, of donor variability.
(§3) Cells (1×10^5) were plated in duplicate onto 35 mm tissue culture plates for each condition tested and set up as described in Rameshwar et al. 1993, Blood. 81:2, 391-398. Erythroid and granulocyte/macrophage cultures were plated using methylcellulose and megakaryocyte cultures (platelet precursors) used a collagen-based support (StemCell Technologies, Vancouver, Canada, catalogue #04973). […] CP 99,994 (Pfizer) was used as a neurokinin-1 receptor antagonist and SR 48968 (Sanofi) was used as a neurokinin-2 receptor antagonist.
Cultures were set up with limited cytokines and growth factors which would promote differentiation of one progenitor per plate.
Each compound was dissolved in endotoxin-free water to a final concentration of 0.1 mM. After reconstitution, the solutions were aliquoted into siliconized microcentrifuge tubes and exposed to nitrogen gas, eliminating oxygen in the head space of the enclosure. All aliquots were stored at −20° C. until use and used within one month of reconstitution. See, Rameshwar, et al. 1997, J. Immunol.
Cultures were incubated at 37° C. with 5% CO2 for approximately 14 days, after which colonies were manually enumerated using a microscope. To count megakaryocyte colonies, the cells were fixed followed by a staining procedure using the following antibodies: primary—mouse anti-human GP11b/111a, isotype control—mouse anti-trinitrophenyl, secondary—biotin-conjugated goat anti-mouse IgG, detection—avidin-alkaline phosphatase conjugate. […]

[2] = test system: Blast Forming Unit—Erythroid (BFU-E); assay: as above; conditions: about 14 days; three donors; FIG. 1
From the text: as §1, §2, §3
(§4) The cytokines and growth factors added to Blast Forming Unit—Erythroid (BFU-E) cultures, Colony Forming Unit—Erythroid (CFU-E) cultures, and Colony Forming Unit—Granulocyte/Macrophage (CFU-GM) cultures were added as defined by proliferative units. […]

[3] = test system: Colony Forming Unit—Erythroid (CFU-E); assay: as above; conditions: about 14 days; FIG. 2
From the text: as §1, §2, §3, §4

[4] = test system: human bone marrow mononuclear cell (MNC) fraction; assay: CFC assay, multi-donor study, all seven cell populations (overall toxicity); conditions: three donors, highest doses (up to 1 nM)
Method: Compound was dissolved in 1 ml of Iscove's Modified Dulbecco's Medium (IMDM) and a serial dose response was prepared in single log doses so that the final dose in culture ranged from 1 nanoMolar (nM) to 1×10^−16 M. All working dilutions were performed in IMDM. Cell cultures from each donor were started at different times and a fresh solution of Homspera® was prepared for each individual experiment.
Starting with human bone marrow aspirate, the mononuclear cell (MNC) fraction from each aspirate was separated from whole bone marrow using Ficoll-Paque density gradient centrifugation.
The colony-forming cell (CFC) assay was performed using optimal growth factor/cytokine concentrations. The reagents and conditions were similar to those used in Example 3, except that no ATP measurements were performed. The MNC fraction from each bone marrow donor was dissolved in IMDM and cultured at a concentration of 5,000 cells/well in a Culture Master Mix (HemoGenix, Inc., Colorado Springs, Colo.). […]
The mean, standard deviation and percent coefficient of variation was calculated for all groups, transposed and plotted as a function of donor. The percent from control values were calculated and also plotted as a function of donor. […]

Arg Pro Lys Pro Gln Gln Phe Phe Gly Leu Met [substance P]
concentration at which effective on platelet precursors [1]: 10^−8 M | BFU-E colony formation, increase from control values [2]: ~60% | CFU-E colony formation, enhancement from control values [3]: about 70%

COc1ccccc1CN[C@H]1CCCN[C@H]1c1ccccc1 [CP-99,994]
effect of receptor antagonist on substance P-enhanced platelet colony formation [1]: blocks the stimulatory activity of substance P

CC(=O)NC1(c2ccccc2)CCN(CC[C@H](CN(C)C(=O)c2ccccc2)c2ccc(Cl)c(Cl)c2)CC1 [SR48968]
effect of receptor antagonist on substance P-enhanced platelet colony formation [1]: no effect on substance P activity

CC(C)C[C@H](NC(=O)CN(C)C(=O)[C@H](Cc1ccccc1)NC(=O)[C@H](Cc1ccccc1)NC(=O)[C@H](CCC(N)=O)NC(=O)[C@H](CCC(N)=O)NC(=O)[C@@H]1CCCN1C(=O)[C@H](CCCCN)NC(=O)[C@@H]1CCCN1C(=O)[C@@H](N)CCCNC(=N)N)C(=O)N[C@@H](CCS(C)(=O)=O)C(N)=O [Homspera®, [Sar^9, Met(O)2^11]-substance P]
toxicity [4]: no apparent toxicity
